Laboratory results reported in the supplement of paper PMC10307832.

Key:
Assay in all cases: relative viability (nuclei count vs DMSO), 5 days (fraction); higher = more cells survive
Neratinib + Phenformin = compound: CCOc1cc2ncc(C#N)c(Nc3ccc(OCc4ccccn4)c(Cl)c3)c2cc1NC(=O)/C=C/CN(C)C [Neratinib] + N=C(N)NC(=N)NCCc1ccccc1 [Phenformin] (partner 250 µM)
In short: (§1)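 Nuclei were stained with Hoechst during a one-step fixation (final 0.05% Triton X-100, 1% formaldehyde, 1 ug/ml Hoechst) carried out 5 days after dosing, then counted on 4× images. The cells, lung cancer lines in 1536-well plates, had been dosed by pin tool the day after seeding with one drug alone or a fixed anchor-drug dose plus five library-drug doses (not always all listed) in √10 steps. Relative viability is the nuclei count in treated wells divided by that in vehicle wells, and each value is the median of duplicate plates.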

Neratinib + OSI-027 = compound: CCOc1cc2ncc(C#N)c(Nc3ccc(OCc4ccccn4)c(Cl)c3)c2cc1NC(=O)/C=C/CN(C)C [Neratinib] + COc1cccc2cc(-c3nc([C@H]4CC[C@H](C(=O)O)CC4)n4ncnc(N)c34)[nH]c12 [OSI-027] (partner 0.5 µM)
In short: as §1

Neratinib + Crizotinib = compound: CCOc1cc2ncc(C#N)c(Nc3ccc(OCc4ccccn4)c(Cl)c3)c2cc1NC(=O)/C=C/CN(C)C [Neratinib] + C[C@@H](Oc1cc(-c2cnn(C3CCNCC3)c2)cnc1N)c1c(Cl)ccc(F)c1Cl [Crizotinib] (partner 1 µM)
In short: as §1

Neratinib + Trametinib = compound: CCOc1cc2ncc(C#N)c(Nc3ccc(OCc4ccccn4)c(Cl)c3)c2cc1NC(=O)/C=C/CN(C)C [Neratinib] + CC(=O)Nc1cccc(-n2c(=O)n(C3CC3)c(=O)c3c(Nc4ccc(I)cc4F)n(C)c(=O)c(C)c32)c1 [Trametinib] (partner 0.02 µM)
In short: as §1

HCC-366
relative viability (Neratinib + Phenformin; first compound 0.01 µM): 0.631 | relative viability (Neratinib + Phenformin; first compound 0.03162 µM): 0.617 | relative viability (Neratinib + Phenformin; first compound 0.1 µM): 0.611 | relative viability (Neratinib + Phenformin; first compound 0.3162 µM): 0.626 | relative viability (Neratinib + Phenformin; first compound 1 µM): 0.547 | relative viability (Neratinib + OSI-027; first compound 0.01 µM): 1.1 | relative viability (Neratinib + OSI-027; first compound 0.03162 µM): 0.949 | relative viability (Neratinib + OSI-027; first compound 0.1 µM): 0.785 | relative viability (Neratinib + OSI-027; first compound 0.3162 µM): 0.803 | relative viability (Neratinib + OSI-027; first compound 1 µM): 0.163 | relative viability (Neratinib + Crizotinib; first compound 0.01 µM): 0.653 | relative viability (Neratinib + Crizotinib; first compound 0.03162 µM): 0.766 | relative viability (Neratinib + Crizotinib; first compound 0.1 µM): 0.46 | relative viability (Neratinib + Crizotinib; first compound 0.3162 µM): 0.48 | relative viability (Neratinib + Crizotinib; first compound 1 µM): 0.519 | relative viability (Neratinib + Trametinib; first compound 0.01 µM): 0.428 | relative viability (Neratinib + Trametinib; first compound 0.03162 µM): 0.396 | relative viability (Neratinib + Trametinib; first compound 0.1 µM): 0.342 | relative viability (Neratinib + Trametinib; first compound 0.3162 µM): 0.322 | relative viability (Neratinib + Trametinib; first compound 1 µM): 0.205

HCC-827
relative viability (Neratinib + Phenformin; first compound 0.01 µM): 0.42 | relative viability (Neratinib + Phenformin; first compound 0.03162 µM): 0.411 | relative viability (Neratinib + Phenformin; first compound 0.1 µM): 0.403 | relative viability (Neratinib + Phenformin; first compound 0.3162 µM): 0.23 | relative viability (Neratinib + Phenformin; first compound 1 µM): 0.151 | relative viability (Neratinib + OSI-027; first compound 0.01 µM): 0.81 | relative viability (Neratinib + OSI-027; first compound 0.03162 µM): 0.774 | relative viability (Neratinib + OSI-027; first compound 0.1 µM): 0.721 | relative viability (Neratinib + OSI-027; first compound 0.3162 µM): 0.508 | relative viability (Neratinib + OSI-027; first compound 1 µM): 0.16 | relative viability (Neratinib + Crizotinib; first compound 0.01 µM): 0.986 | relative viability (Neratinib + Crizotinib; first compound 0.03162 µM): 0.996 | relative viability (Neratinib + Crizotinib; first compound 0.1 µM): 0.778 | relative viability (Neratinib + Crizotinib; first compound 0.3162 µM): 0.7 | relative viability (Neratinib + Crizotinib; first compound 1 µM): 0.176 | relative viability (Neratinib + Trametinib; first compound 0.01 µM): 0.426 | relative viability (Neratinib + Trametinib; first compound 0.03162 µM): 0.545 | relative viability (Neratinib + Trametinib; first compound 0.1 µM): 0.561 | relative viability (Neratinib + Trametinib; first compound 0.3162 µM): 0.226 | relative viability (Neratinib + Trametinib; first compound 1 µM): 0.153

HOP-62
relative viability (Neratinib + Phenformin; first compound 0.01 µM): 0.716 | relative viability (Neratinib + Phenformin; first compound 0.03162 µM): 0.702 | relative viability (Neratinib + Phenformin; first compound 0.1 µM): 0.621 | relative viability (Neratinib + Phenformin; first compound 0.3162 µM): 0.585 | relative viability (Neratinib + Phenformin; first compound 1 µM): 0.617 | relative viability (Neratinib + OSI-027; first compound 0.01 µM): 0.849 | relative viability (Neratinib + OSI-027; first compound 0.03162 µM): 0.914 | relative viability (Neratinib + OSI-027; first compound 0.1 µM): 0.799 | relative viability (Neratinib + OSI-027; first compound 0.3162 µM): 0.776 | relative viability (Neratinib + OSI-027; first compound 1 µM): 0.775 | relative viability (Neratinib + Crizotinib; first compound 0.01 µM): 1.07 | relative viability (Neratinib + Crizotinib; first compound 0.03162 µM): 1.05 | relative viability (Neratinib + Crizotinib; first compound 0.1 µM): 0.806 | relative viability (Neratinib + Crizotinib; first compound 0.3162 µM): 0.932 | relative viability (Neratinib + Crizotinib; first compound 1 µM): 0.958 | relative viability (Neratinib + Trametinib; first compound 0.01 µM): 0.408 | relative viability (Neratinib + Trametinib; first compound 0.03162 µM): 0.4 | relative viability (Neratinib + Trametinib; first compound 0.1 µM): 0.337 | relative viability (Neratinib + Trametinib; first compound 1 µM): 0.405

IA-LM
relative viability (Neratinib + Crizotinib; first compound 0.01 µM): 0.981 | relative viability (Neratinib + Crizotinib; first compound 0.03162 µM): 0.799 | relative viability (Neratinib + Crizotinib; first compound 0.1 µM): 0.681 | relative viability (Neratinib + Crizotinib; first compound 0.3162 µM): 0.766 | relative viability (Neratinib + Crizotinib; first compound 1 µM): 0.536

LC-2-ad
relative viability (Neratinib + Phenformin; first compound 0.03162 µM): 0.578 | relative viability (Neratinib + Phenformin; first compound 0.1 µM): 0.557 | relative viability (Neratinib + Phenformin; first compound 0.3162 µM): 0.421 | relative viability (Neratinib + Phenformin; first compound 1 µM): 0.45 | relative viability (Neratinib + OSI-027; first compound 0.01 µM): 0.831 | relative viability (Neratinib + OSI-027; first compound 0.03162 µM): 0.877 | relative viability (Neratinib + OSI-027; first compound 0.1 µM): 0.749 | relative viability (Neratinib + OSI-027; first compound 0.3162 µM): 0.518 | relative viability (Neratinib + OSI-027; first compound 1 µM): 0.383 | relative viability (Neratinib + Crizotinib; first compound 0.01 µM): 0.456 | relative viability (Neratinib + Crizotinib; first compound 0.03162 µM): 0.457 | relative viability (Neratinib + Crizotinib; first compound 0.1 µM): 0.41 | relative viability (Neratinib + Crizotinib; first compound 0.3162 µM): 0.386 | relative viability (Neratinib + Crizotinib; first compound 1 µM): 0.294 | relative viability (Neratinib + Trametinib; first compound 0.01 µM): 0.98 | relative viability (Neratinib + Trametinib; first compound 0.03162 µM): 0.933 | relative viability (Neratinib + Trametinib; first compound 0.1 µM): 0.805 | relative viability (Neratinib + Trametinib; first compound 0.3162 µM): 0.845 | relative viability (Neratinib + Trametinib; first compound 1 µM): 0.85

LCLC-97TM1
relative viability (Neratinib + Phenformin; first compound 0.01 µM): 0.461 | relative viability (Neratinib + Phenformin; first compound 0.03162 µM): 0.462 | relative viability (Neratinib + Phenformin; first compound 0.1 µM): 0.379 | relative viability (Neratinib + Phenformin; first compound 0.3162 µM): 0.29 | relative viability (Neratinib + Phenformin; first compound 1 µM): 0.177 | relative viability (Neratinib + OSI-027; first compound 0.01 µM): 0.615 | relative viability (Neratinib + OSI-027; first compound 0.03162 µM): 0.537 | relative viability (Neratinib + OSI-027; first compound 0.1 µM): 0.547 | relative viability (Neratinib + OSI-027; first compound 0.3162 µM): 0.346 | relative viability (Neratinib + OSI-027; first compound 1 µM): 0.27 | relative viability (Neratinib + Crizotinib; first compound 0.01 µM): 0.344 | relative viability (Neratinib + Crizotinib; first compound 0.03162 µM): 0.33 | relative viability (Neratinib + Crizotinib; first compound 0.1 µM): 0.314 | relative viability (Neratinib + Crizotinib; first compound 0.3162 µM): 0.242 | relative viability (Neratinib + Crizotinib; first compound 1 µM): 0.136 | relative viability (Neratinib + Trametinib; first compound 0.01 µM): 0.187 | relative viability (Neratinib + Trametinib; first compound 0.03162 µM): 0.193 | relative viability (Neratinib + Trametinib; first compound 0.1 µM): 0.192 | relative viability (Neratinib + Trametinib; first compound 1 µM): 0.112

LCLC-103H
relative viability (Neratinib + Phenformin; first compound 0.01 µM): 0.353 | relative viability (Neratinib + Phenformin; first compound 0.03162 µM): 0.344 | relative viability (Neratinib + Phenformin; first compound 0.1 µM): 0.34 | relative viability (Neratinib + Phenformin; first compound 0.3162 µM): 0.293 | relative viability (Neratinib + Phenformin; first compound 1 µM): 0.293 | relative viability (Neratinib + OSI-027; first compound 0.01 µM): 0.562 | relative viability (Neratinib + OSI-027; first compound 0.03162 µM): 0.48 | relative viability (Neratinib + OSI-027; first compound 0.1 µM): 0.47 | relative viability (Neratinib + OSI-027; first compound 0.3162 µM): 0.463 | relative viability (Neratinib + OSI-027; first compound 1 µM): 0.394 | relative viability (Neratinib + Crizotinib; first compound 0.01 µM): 1.09 | relative viability (Neratinib + Crizotinib; first compound 0.03162 µM): 0.989 | relative viability (Neratinib + Crizotinib; first compound 0.1 µM): 0.88 | relative viability (Neratinib + Crizotinib; first compound 0.3162 µM): 0.892 | relative viability (Neratinib + Crizotinib; first compound 1 µM): 0.884 | relative viability (Neratinib + Trametinib; first compound 0.01 µM): 0.739 | relative viability (Neratinib + Trametinib; first compound 0.03162 µM): 0.733 | relative viability (Neratinib + Trametinib; first compound 0.1 µM): 0.618 | relative viability (Neratinib + Trametinib; first compound 0.3162 µM): 0.681 | relative viability (Neratinib + Trametinib; first compound 1 µM): 0.639

LK-2
relative viability (Neratinib + Phenformin; first compound 0.01 µM): 0.467 | relative viability (Neratinib + Phenformin; first compound 0.03162 µM): 0.418 | relative viability (Neratinib + Phenformin; first compound 0.1 µM): 0.518 | relative viability (Neratinib + Phenformin; first compound 0.3162 µM): 0.287 | relative viability (Neratinib + Phenformin; first compound 1 µM): 0.318 | relative viability (Neratinib + OSI-027; first compound 0.01 µM): 0.189 | relative viability (Neratinib + OSI-027; first compound 0.03162 µM): 0.227 | relative viability (Neratinib + OSI-027; first compound 0.1 µM): 0.217 | relative viability (Neratinib + OSI-027; first compound 0.3162 µM): 0.189 | relative viability (Neratinib + OSI-027; first compound 1 µM): 0.182 | relative viability (Neratinib + Crizotinib; first compound 0.01 µM): 0.209 | relative viability (Neratinib + Crizotinib; first compound 0.03162 µM): 0.191 | relative viability (Neratinib + Crizotinib; first compound 0.1 µM): 0.206 | relative viability (Neratinib + Crizotinib; first compound 0.3162 µM): 0.211 | relative viability (Neratinib + Crizotinib; first compound 1 µM): 0.253 | relative viability (Neratinib + Trametinib; first compound 0.01 µM): 0.948 | relative viability (Neratinib + Trametinib; first compound 0.03162 µM): 0.714 | relative viability (Neratinib + Trametinib; first compound 0.1 µM): 0.851 | relative viability (Neratinib + Trametinib; first compound 0.3162 µM): 0.501 | relative viability (Neratinib + Trametinib; first compound 1 µM): 0.34

LOU-NH91
relative viability (Neratinib + Phenformin; first compound 0.01 µM): 0.664 | relative viability (Neratinib + Phenformin; first compound 0.03162 µM): 0.634 | relative viability (Neratinib + Phenformin; first compound 0.1 µM): 0.525 | relative viability (Neratinib + Phenformin; first compound 0.3162 µM): 0.426 | relative viability (Neratinib + Phenformin; first compound 1 µM): 0.412 | relative viability (Neratinib + OSI-027; first compound 0.01 µM): 0.706 | relative viability (Neratinib + OSI-027; first compound 0.03162 µM): 0.715 | relative viability (Neratinib + OSI-027; first compound 0.1 µM): 0.471 | relative viability (Neratinib + OSI-027; first compound 0.3162 µM): 0.46 | relative viability (Neratinib + OSI-027; first compound 1 µM): 0.408 | relative viability (Neratinib + Crizotinib; first compound 0.01 µM): 0.735 | relative viability (Neratinib + Crizotinib; first compound 0.03162 µM): 0.669 | relative viability (Neratinib + Crizotinib; first compound 0.1 µM): 0.588 | relative viability (Neratinib + Crizotinib; first compound 0.3162 µM): 0.501 | relative viability (Neratinib + Crizotinib; first compound 1 µM): 0.479 | relative viability (Neratinib + Trametinib; first compound 0.01 µM): 0.795 | relative viability (Neratinib + Trametinib; first compound 0.03162 µM): 0.746 | relative viability (Neratinib + Trametinib; first compound 0.1 µM): 0.698 | relative viability (Neratinib + Trametinib; first compound 0.3162 µM): 0.67 | relative viability (Neratinib + Trametinib; first compound 1 µM): 0.597
